This note sets out measurements from patent US5312816A, “Method of combatting osteoporosis in mammalian subjects, utilizing organic boron compounds” (priority 1993, dated 1994).

For one experiment, the system named is Hydroxyproline. The experiment can be described thus: Serum and urine hydroxyproline levels in vivo. The conditions noted are these: Cf1 male mice, 8 mg/kg/day I.P. 14 days, N=6.
The subject of the next experiment is Calcium. The experiment can be described thus: Serum and urine calcium levels in vivo. The conditions noted are these: Cf1 male mice, 8 mg/kg/day I.P. 14 days, N=6.
The subject of a further experiment is Phosphorus. The experiment can be described thus: Serum and urine inorganic phosphorus levels in vivo. The conditions noted are these: Cf1 male mice, 8 mg/kg/day I.P. 14 days, N=6.
Experiment [1] has as its target Acid phosphatase. The experiment is described as follows: Mouse hepatic lysosomal acid phosphatase activity. It is filed as biochemical. Particulars: mouse hepatic, 60 min incubation. The text has this: (§1) 1. Cf1 male mouse hepatic 10% homogenates in 0.25M sucrose+0.001MEDTA,pH 7.2.
(§2) Lysosomal Enzymes - free and total [triton X-100].
(§3) 1. Acid phosphatase -beta glycerol-3-phosphate, pH 5.0, released IP 720 nm.
Acid phosphatase activity -

Experiment [2] addresses T1, Cathepsin D (Mus musculus, UniProt P18242).
T1 construct: azocasein assay pH 5.0
The experiment can be described thus: Mouse hepatic lysosomal cathepsin D activity. It is filed as biochemical. Particulars: mouse hepatic, 60 min incubation, read-out: Cathepsin D IC50.
Source text: as §1, §2
(§4) 2. Acid Cathepsin D -azocasein-pH 5.0, hydrolytic azo-peptide produce 366 nm.
Cathepsin azo casein activity -

The target in another experiment is T2, Prostaglandin synthetase (Bos taurus, UniProt O62664).
T2 construct: Prostaglandin synthetase purified beef seminal vesicle; from tissue
T2 sequence (O62664 25-600): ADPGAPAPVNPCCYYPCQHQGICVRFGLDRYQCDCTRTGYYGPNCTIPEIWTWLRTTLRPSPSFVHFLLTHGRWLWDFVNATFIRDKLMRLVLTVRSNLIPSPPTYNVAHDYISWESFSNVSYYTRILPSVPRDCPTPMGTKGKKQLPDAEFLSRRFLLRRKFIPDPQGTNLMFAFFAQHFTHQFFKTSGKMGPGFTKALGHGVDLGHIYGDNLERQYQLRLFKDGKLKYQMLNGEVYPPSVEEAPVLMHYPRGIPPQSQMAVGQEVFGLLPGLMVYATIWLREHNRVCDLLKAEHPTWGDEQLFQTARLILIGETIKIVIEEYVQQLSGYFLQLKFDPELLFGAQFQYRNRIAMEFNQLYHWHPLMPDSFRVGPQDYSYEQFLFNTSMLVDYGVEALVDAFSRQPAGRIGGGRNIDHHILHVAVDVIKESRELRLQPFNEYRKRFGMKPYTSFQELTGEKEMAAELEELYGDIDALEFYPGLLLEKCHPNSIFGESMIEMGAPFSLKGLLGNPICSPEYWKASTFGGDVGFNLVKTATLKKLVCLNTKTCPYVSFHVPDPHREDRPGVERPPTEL
The experiment can be described thus: Prostaglandin synthetase (cyclooxygenase), purified beef seminal vesicle. The conditions noted are these: Table IX; commercial enzyme preparation; read-out: Beef Prostaglandin Cyclooxygenase IC50. In kind it is biochemical. The text has this:
(§5) Prostaglandin synthetase purified beef seminal vesicle ^3 H arachidonic acid (86.2 Ci/mmol), tlc separation.

The target of experiment [3] is T3, Cathepsin D (Homo sapiens, UniProt P07339).
T3 construct: azocasein assay pH 5.0
The experiment can be described thus: Human osteoporosis fibroblasts cathepsin D (azo-casein) activity. In kind it is cell-based. The conditions noted are these: Table X; human osteoporosis fibroblasts, DMEM +10% FCS + P/S; read-out: Cathepsin D IC50.
Source text: Osteoporosis Human Fibroblast-CRL-1140, Be SA1

For experiment [4], the system named is Acid phosphatase. The experiment is described as follows: Human osteoporosis fibroblasts acid phosphatase activity. The conditions noted are these: read-out: Acid Phosphatase IC50; Table X; human osteoporosis fibroblasts. It is filed as cell-based.
Source text: as §3

Experiment [5] relates to Aryl sulphatase. The experiment can be described thus: Human osteoporosis fibroblasts aryl sulphatase activity. In kind it is cell-based. The conditions noted are these: read-out: Aryl Sulphatase IC50; Table X; human osteoporosis fibroblasts. The text has this: (§6) 3. Aryl sulphatase- p-nitrocatechol sulfate, pH
(§7) 5. 8 p-nitro-catechol product 510 nm.

Experiment [6] concerns Cf1 male mice. The experiment can be described thus: Writhing reflex, 0.6% acetic acid. It is filed as in vivo. Particulars: Mus musculus, ip; Table IV; 8 mg/kg I.P. A general note: An intraperitoneal irritant provokes the stretching counted in writhing tests.
Experiment [7] concerns Cf1 male mice. The experiment is described as follows: Anti-inflammatory screen, Winter's test, 2% carrageenan hind foot. It is filed as in vivo. The conditions noted are these: Table XIV; unit inferred; unit assumed. On the procedure: Anti-inflammatory Screen- Cf1 - male mice-Winter's Test 2% carrageenan S.C. plantar surface of hind foot, drugs administered @8 or 10 mg/kg I.P. 2X
Winter, C.A., et al, Proc. Soc.

In experiment [8] the test system is Cf1 male mice. The experiment can be described thus: Writhing reflex, 0.6% acetic acid. In kind it is in vivo. Particulars: Table XIV; unit inferred; unit assumed. How it is done: Writhing reflex- Cf1 -male mice- 0.6% acetic acid I.P. drugs administered @20 mg/kg/ I.P. 20 min. later - the # of stretches/10 min.
Hendershot, L.C., et al, J.

In experiment [9] the target is Aryl sulphatase. The experiment can be described thus: Mouse hepatic lysosomal aryl sulphatase activity. In kind it is biochemical. Particulars: Table XV, 60 min incubation.
Source text: as §1, §2, §6, §7

The test system of experiment [10] is Trypsin. The experiment can be described thus: Mouse hepatic trypsin activity. Particulars: Table XVI; 60 min incubation; read-out: Mouse Hepatic Trypsin IC50. In kind it is biochemical.
Source text: as §1
1. Trypsin- N-benzoyl-L-arginine ethyl ester pH 8.0, hydrolytic product 253 nm.

Experiment [11] concerns the target T1, Cathepsin D. The experiment can be described thus: Mouse macrophage cathepsin D activity. It is filed as cell-based. The conditions noted are these: Table XVII; mouse macrophage, 60 min incubation; read-out: Cathepsin D pH 5.0 IC50.
Source text: (§8) 3. Mouse macrophages J774A.1 BALB/c
as §4

Experiment [12] has as its system Acid phosphatase. The experiment is described as follows: Mouse macrophage acid phosphatase activity. It is filed as cell-based. Particulars: Table XVII; mouse macrophage, 60 min incubation; read-out: Acid Phosphatase IC50.
Experiment [13] deals with Aryl sulphatase. The experiment can be described thus: Mouse macrophage aryl sulphatase activity. It is filed as cell-based. Particulars: Table XVII; mouse macrophage, 60 min incubation; read-out: Aryl Sulphatase IC50.
In experiment [14] the test system is Trypsin. The experiment is described as follows: Mouse macrophage trypsin (BAEE) activity. It is filed as cell-based. Particulars: Table XVIII; mouse macrophage, 60 min incubation; read-out: Trypsin BAEE IC50.
The subject of a further experiment is Elastase. The experiment is described as follows: Mouse macrophage elastase activity. It is filed as cell-based. Particulars: Table XVIII; mouse macrophage, 60 min incubation; read-out: Elastase IC50.
Experiment [15] has as its system Prostaglandin cyclooxygenase. The experiment can be described thus: Mouse macrophage prostaglandin cyclooxygenase activity. It is filed as cell-based. Particulars: Table XVIII; mouse macrophage, 60 min incubation; read-out: Prostaglandin Cyclooxygenase IC50.
Source text: as §8, §5

Experiment [16] relates to Cf1 male mice. The experiment is described as follows: Hot plate tail flick test. In kind it is in vivo. Particulars: Table XIV; unit not given.
The target in another experiment is T4, Pg. cyclooxygenase (Sus scrofa, UniProt A0A287ANF9).
T4 construct: Porcine Seminal; from tissue; the methods section prints beef seminal vesicle
The experiment can be described thus: Porcine seminal vesicles Pg. cyclooxygenase. It is filed as biochemical.

The next experiment deals with Commercial Collagenase. The experiment can be described thus: Commercial collagenase (type not stated). It is filed as biochemical. Particulars: Table XVI, 60 min incubation. The text has this:
3. Collagenase I, Clostridium histolyticum, bone, skin, tendon, blood vessel, dentine, GI. substrate: rat collagen, N-[propionate-2-3-^3 H] propionylated measured as dpm released.
4. Collagenase II, Clostridium histolyticum, cartilage collagen.

Where a name gives a salt, the structure may show the parent alone. Read-outs that look alike come from different tables or passages of the source.

T4 sequence (A0A287ANF9 25-600): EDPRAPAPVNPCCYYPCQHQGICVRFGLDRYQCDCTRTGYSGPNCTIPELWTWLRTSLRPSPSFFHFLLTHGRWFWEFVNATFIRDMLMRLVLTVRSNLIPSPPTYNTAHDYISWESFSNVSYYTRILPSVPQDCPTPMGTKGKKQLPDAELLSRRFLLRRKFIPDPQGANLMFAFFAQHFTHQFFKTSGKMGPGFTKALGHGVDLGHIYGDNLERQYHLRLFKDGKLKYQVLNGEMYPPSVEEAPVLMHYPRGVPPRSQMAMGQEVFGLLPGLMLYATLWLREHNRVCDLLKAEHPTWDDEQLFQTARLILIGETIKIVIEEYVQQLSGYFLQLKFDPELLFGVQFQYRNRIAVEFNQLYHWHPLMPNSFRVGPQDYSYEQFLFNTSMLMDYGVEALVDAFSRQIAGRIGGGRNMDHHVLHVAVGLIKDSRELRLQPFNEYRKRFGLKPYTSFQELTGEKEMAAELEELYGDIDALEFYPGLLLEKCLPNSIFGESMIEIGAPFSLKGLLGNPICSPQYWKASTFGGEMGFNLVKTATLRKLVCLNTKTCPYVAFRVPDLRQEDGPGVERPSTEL
T1 sequence (P18242 65-410): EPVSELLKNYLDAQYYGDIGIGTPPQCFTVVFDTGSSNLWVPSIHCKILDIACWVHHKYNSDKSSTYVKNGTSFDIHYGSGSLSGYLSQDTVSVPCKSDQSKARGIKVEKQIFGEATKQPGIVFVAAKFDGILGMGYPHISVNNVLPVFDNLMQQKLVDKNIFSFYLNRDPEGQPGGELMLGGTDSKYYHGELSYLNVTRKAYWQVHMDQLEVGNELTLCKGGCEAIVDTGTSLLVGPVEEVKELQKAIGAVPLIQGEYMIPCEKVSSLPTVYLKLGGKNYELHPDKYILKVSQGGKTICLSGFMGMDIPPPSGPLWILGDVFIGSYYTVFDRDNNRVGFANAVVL
T3 sequence (P07339 65-412): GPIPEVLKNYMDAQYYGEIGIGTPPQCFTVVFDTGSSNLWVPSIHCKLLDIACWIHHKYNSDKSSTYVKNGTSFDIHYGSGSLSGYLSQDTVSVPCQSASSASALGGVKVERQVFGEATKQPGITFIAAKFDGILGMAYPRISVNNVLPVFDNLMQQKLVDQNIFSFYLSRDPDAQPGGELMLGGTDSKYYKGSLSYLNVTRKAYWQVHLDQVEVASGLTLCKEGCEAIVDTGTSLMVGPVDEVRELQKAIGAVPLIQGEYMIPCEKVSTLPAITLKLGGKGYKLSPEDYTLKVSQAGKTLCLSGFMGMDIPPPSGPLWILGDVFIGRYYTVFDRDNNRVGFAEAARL
Source text for Elastase: Elastase- N-succinyl-L-alanyl-L-alanine-p-nitroanilide, pH 8.0, p-nitro anilide 410 nm.

Regarding `COC(=O)[BH2-][NH+](C)C` [(CH3)2 NHBH2 COOCH3, Dimethylamine-carbomethoxyborane], in the experiment on Hydroxyproline, the Hydroxyproline serum is recorded as 84.4 % Control and the Hydroxyproline urine turned out to be 50.5 % Control. Besides, in the experiment on Calcium, the Calcium serum was found to be 125.4 % Control and the Calcium urine worked out at 80.7 % Control. In the experiment on Phosphorus, the Phosphorus serum turned out to be 42.8 % Control and the Phosphorus urine came to 67.8 % Control.
On to `C[NH2+][BH2-]C(=O)OC` [CH3 NH2 BH2 COOCH3, Methylamine-carbomethoxyborane], for which, in the experiment with Hydroxyproline, the Hydroxyproline serum worked out at 68.0 % Control and the Hydroxyproline urine worked out at 144.1 % Control. For the same compound, in the experiment on Calcium, the Calcium serum is given as 105.1 % Control and the Calcium urine is 176.9 % Control. Also, in the experiment on Phosphorus, the Phosphorus serum worked out at 65.3 % Control and the Phosphorus urine amounted to 136.8 % Control.
Turning to `O=C(O)[BH2-][n+]1ccccc1` [Compound 15, Pyridine-carboxyborane], the half-inhibitory concentration (IC50) was 10 µM on Acid phosphatase [1] (Table V); 4.8 µM at Cathepsin D [2] (Table V); 7.6 µM at Prostaglandin synthetase; 8.16 µM on Cathepsin D [3]; 18.3 µM in the experiment with Acid phosphatase [4]; 8.16 µM in the experiment on Aryl sulphatase [5]. Moreover, in the experiment with Cf1 male mice [6], the response vs control in vivo at 8 mg/kg turned out to be 50%.
As to `C[N+](C)(C)[BH2-]C(=O)O` [Compound 22, Trimethylamine-carboxyborane, sodium salt], the Anti-Inflammation Cf1 Mice in the experiment with Cf1 male mice [7] was 73.4%. The compound also registered a Writhing Reflex Mice with Cf1 male mice [8] of 76.5%. In addition, the IC50 stood at 3.56 µM at Acid phosphatase [1] (Table XV); 6.69 µM at Cathepsin D [2] (Table XV); 5.15 µM at Aryl sulphatase [9]; 9.98 µM with Trypsin [10]; 1.92 µM on Cathepsin D [11]; 2 µM in the experiment with Acid phosphatase [12]. Also, the IC50 stood at 1.33 µM with Aryl sulphatase [13]; 2.27 µM in the experiment on Trypsin [14]; 7.26 µM with Elastase; 2.41 µM in [15]; 2.4 µM against Pg. cyclooxygenase; 490 µM at Commercial Collagenase (sodium salt). Moreover, the “Tail Flick Mice” value with Cf1 male mice [16] came out at 101.
`C[N+](C)(C)[BH2-]C(=O)[O-].C[N+](C)(C)[BH2-]C(=O)[O-].C[N+](C)(C)[BH2-]C(=O)[O-].C[N+](C)(C)[BH2-]C(=O)[O-].C[N+](C)(C)[BH2-]C(=O)[O-].C[N+](C)(C)[BH2-]C(=O)[O-].O.O.O.[Cl-].[Fe+3].[Fe+3].[Fe+3].[O-2]` [Compound 25] displayed an Anti-Inflammation Cf1 Mice in the experiment on Cf1 male mice [7] of 74.2%. The Writhing Reflex Mice in the experiment with Cf1 male mice [8] is 36.4%. The IC50 worked out at 4.14 µM against Acid phosphatase [1] (Table XV); 8.17 µM on Cathepsin D [2] (Table XV); 2.33 µM on Aryl sulphatase [9]; 9.91 µM in the experiment with Trypsin [10]; 3.39 µM at Cathepsin D [11]; 2.44 µM at Acid phosphatase [12]. Moreover, the 50% inhibitory concentration (IC50) came to 2.75 µM at Aryl sulphatase [13]; 1.81 µM in the experiment on Trypsin [14]; 4.11 µM at Elastase; 2.08 µM in experiment [15]; 4.17 µM at Pg. cyclooxygenase (Table XVI, 60 min incubation); 475 µM on Commercial Collagenase. Moreover, in the experiment on Cf1 male mice [16], the “Tail Flick Mice” value is on record as 599.
Consider `O=C(O)[BH2-][P+](c1ccccc1)(c1ccccc1)c1ccccc1` [Compound 8, Triphenylphosphine-carboxyborane], for which, in the experiment on Hydroxyproline, the Hydroxyproline serum came out at 60.5 % Control and the Hydroxyproline urine is on record as 30.0 % Control. In addition, the Calcium urine in the experiment on Calcium is reported as 83.5 % Control.
In the experiment with Hydroxyproline, `CC[NH2+][BH2-]C(=O)O` [CH3 CH2 NH2 BH2 COOH] gave a Hydroxyproline serum of 89.1 % Control and a Hydroxyproline urine of 69.2 % Control. In the experiment with Calcium, the Calcium serum is 121.0 % Control and the Calcium urine is 61.2 % Control. In the experiment on Phosphorus, this compound showed a Phosphorus serum of 64.3 % Control and a Phosphorus urine of 78.0 % Control.
For the compound `CC#N.CO.CO.CO.C[N+](C)(C)[BH2-]C(=O)[O-].C[N+](C)(C)[BH2-]C(=O)[O-].C[N+](C)(C)[BH2-]C(=O)[O-].C[N+](C)(C)[BH2-]C(=O)[O-].C[N+](C)(C)[BH2-]C(=O)[O-].C[N+](C)(C)[BH2-]C(=O)[O-].O=[N+]([O-])[O-].[Fe+3].[Fe+3].[Fe+3].[O-2]` [Compound 24], the Anti-Inflammation Cf1 Mice in the experiment on Cf1 male mice [7] is 81.6%. Moreover, the Writhing Reflex Mice in the experiment on Cf1 male mice [8] is 42.9%. The IC50 stood at 5.6 µM against Acid phosphatase [1] (Table XV); 6.84 µM on Cathepsin D [2] (Table XV); 2.57 µM against Aryl sulphatase [9]; 9.93 µM with Trypsin [10]; 2.85 µM at Cathepsin D [11]; 2.09 µM at Acid phosphatase [12]. For the same compound, the IC50 worked out at 1.95 µM at Aryl sulphatase [13]; 2.37 µM in the experiment with Trypsin [14]; 3.92 µM at Elastase; 2.34 µM in experiment [15]; 2.9 µM at Pg. cyclooxygenase (Table XVI, 60 min incubation); 478 µM at Commercial Collagenase. Moreover, in the experiment on Cf1 male mice [16], the “Tail Flick Mice” value turned out to be 338.

As a reminder, the IC50 is the midpoint of a concentration-inhibition curve.
